{
  "source": "patent US11185528B2",
  "about": "“ALDA-1 treatment and prevention of pulmonary disease” (University of South Florida, priority 2018, dated 2021)",
  "key": {"Bax": {"system": "Bax", "test": "Western blot of whole cell lysate, Bax", "type": "cell-based, human", "conditions": "HMVEC pretreated with 20 μM, hyperoxia 48 hours, normalized to β-actin", "procedure": "(§1) The HMVEC-L cells were cultured and after reaching confluence (70%), were exposed to hyperoxia with or without Alda-1 for 48 hours. The concentration was determined by the proOX p100 sensor (Biospherix). After hyperoxia, the cell pellets were collected by centrifugation and the cell pellets were suspended in lysis buffer (20 mM Tris HCL, pH7.4, 150 mM Nacl, 0.5% Triton-x 100) and the supernatant was collected after centrifugation at high speed (14000 g) for 15 minutes at 4° C. The amount of protein was calculated by BCA assay kit (Pierce, Rockford, Ill.). Equivalent amount of protein (15 μg) subjected to SDS-PAGE using between 4-20% tris-glycine gel (Bio-rad) after which electro transfer with PVDF membrane was performed, followed by blocking in 5% skim milk with washes with TBST. The membranes were treated with primary and secondary antibodies. The bands were developed by pierce EC1 (Thermo Fischer scientific) and films with protein bands were scanned and analyzed densitometrically by NIH ImageJ software. The ratio of protein to loading control was taken and analyzed in percentages."}, "hyperoxia-induced damage": {"system": "hyperoxia-induced damage", "test": "Example 5: mice exposed to hyperoxia 48 hours, lung lysate immunoblot", "type": "in vivo, C57BL/6 mice", "conditions": "20 μM via Alzet pumps", "procedure": "C57BL/6 mice were pretreated with DMSO (control) and 20 μM Alda-1 (administered via Alzet pumps), then exposed to hyperoxia for 48 hours. The mice were divided into three groups: Room air, hyperoxia (48 hour)+DMSO, and hyperoxia (48 hour)+Alda-1. The lung tissues were harvested, and lysates evaluated by immunoblot analysis."}, "4HNE": {"system": "4HNE", "test": "Oxidative stress assay, 4HNE adduct competitive ELISA on whole cell lysate", "type": "cell-based, human", "conditions": "HMVEC pretreated with 20 μM, hyperoxia 48 hours", "procedure": "(§2) HMVEC's were preserved in EGM-2 MV media (Lonza, Wakersville, Md.) and supplemented with FBS (25 ml), Hydrocortisone (0.2 ml), hFGF-B (2.0 ml), VEGF (0.5 ml), R3 IGF-1 (0.5 ml), Ascorbic acid (0.5 ml), hEGF (0.5 ml), GA-1000 (0.5 ml) at 37° C. in a 5% carbon dioxide-humidified incubator to maintain sufficient cell growth. The cultured cells were validated for confluence (around 70%) and exposed to hyperoxia for 48 hours with and without Alda-1.\nThe samples of whole cell lysate (50 μg) were seeded in each well. Oxidative stress was measured by an oxiselect 4HNE adduct competitive ELISA kit (Cell Biolabs), according to the instructions of kit."}, "cytochrome C": {"system": "cytochrome C", "test": "Western blot of whole cell lysate, cytochrome C", "type": "cell-based, human", "procedure": "(§3) Cells obtained were human microvascular endothelial cells (HMVECs). Cell culture medium was EBM-2 containing 10% FBS plus antibiotics. Assays were MitoSOX, JC1, Histology, Western blot, and ALDH2 activity. Antibodies used were mouse anti-ALDH2 antibody, Cytochrome C, and Beclin (cell signaling).\n(§4) HMVECs were seeded and, after reaching confluence, treated with DMSO and Alda-1. Cells were then exposed to normoxia or hyperoxia at different time points. After 24, 48, and 72 hours, cells were collected for mitochondrial analyses.\nas §1, with “Equivalent amount of protein (15 μg) subjected to SDS-PAGE using between 4-20% tris-glycine gel (Bio-rad) after which electro transfer with PVDF membrane was performed, followed by blocking in 5% skim milk with washes with TBST. The membranes were treated with primary and secondary antibodies.” left out"}, "acute lung injury": {"system": "acute lung injury", "test": "Example 6: mice exposed to 100% oxygen 48 hours, BAL fluid, Diff Kwik staining, H&E staining, western blot", "type": "in vivo, C57BL/6 mice", "conditions": "20 μM via osmotic pumps", "procedure": "The C57BL/6 mice were embedded with osmotic pumps and continuously injected with either DMSO or Alda-1 (20 μM), then they were exposed to 100% oxygen 48 hours. The lung samples, as well as Bronchial Alveolar Lavage Fluid, were collected for the evaluation of infiltration of cytokines, inflammation, autophagy, and apoptosis by Diff Kwik staining, H&E staining, and western blot."}, "[1]": {"system": "human microvascular endothelial cells (HMVECs)", "test": "MitoSOX mitochondrial ROS production", "type": "cell-based", "conditions": "Example 1", "procedure": "as §3, §4"}, "[2]": {"system": "hyperoxia-induced acute lung injury", "test": "Example 4: mice exposed to hyperoxia 48 hours, lung lysate immunoblot and BAL fluid analysis", "type": "in vivo, C57BL/6 mice", "conditions": "20 mM via alzet pumps", "procedure": "C57BL/6 mice were exposed to hyperoxia for 48 hours with DMSO (Control) and Alda-1 (20 mM) via alzet pumps on the dorsal side of mice. The mice were divided into four groups: normoxia+DMSO (room air), normoxia+Alda-1, hyperoxia+DMSO, and hyperoxia+Alda-1. The lungs were harvested and the bronchoalveolar lavage (BAL) fluid was collected and analyzed by immunoblot and cytokine levels."}, "[3]": {"system": "human microvascular endothelial cells (HMVEC)", "test": "JC-1 staining, mitochondrial membrane potential", "type": "cell-based", "procedure": "as §3, §4\nHMVEC-L cells were maintained in a EGM-2 (Lonza) media supplemented with FBS (25 ml), Hydrocortisone (0.2 ml), hFGF-B (2.0 ml), VEGF (0.5 ml), R3 IGF-1 (0.5 ml), Ascorbic acid (0.5 ml), hEGF (0.5 ml), GA-1000 (0.5 ml) at 37° C. in a 5% carbon dioxide humidified incubator to maintain a sufficient cell growth. The HMVEC-L cells were plated at density of 1×10,000 cells in a cell view dish with glass bottom (Thomas scientific). When cells attained 70% confluency, they were exposed to hyperoxia for 48 hours with Alda-1 and without Alda-1. Following exposure to hyperoxia, the HMVEC-L cells were washed by HBSS solution (without Ca+ and Mg+) (Gibco). […] The live cell imaging was conducted using fluorescence microscopy (Olympus). The green and red images were captured in fluorescence and images were quantified by image J by red to green ratio."}, "ALDH2 [4]": {"system": "ALDH2", "test": "Western blot of whole cell lysate, ALDH2 expression", "type": "cell-based, human", "conditions": "HMVEC pretreated with 20 μM, hyperoxia 48 hours, normalized to β-actin", "procedure": "as §1"}, "ALDH2 [5]": {"molecular_target": "T1, ALDH2 (Homo sapiens, UniProt P05091)", "T1 construct": "Cells obtained were human microvascular endothelial cells (HMVECs); endogenous in cells; host or cells: HMVEC / HMVEC-L (human lung microvascular endothelial cells)", "T1 sequence (P05091 18-517)": "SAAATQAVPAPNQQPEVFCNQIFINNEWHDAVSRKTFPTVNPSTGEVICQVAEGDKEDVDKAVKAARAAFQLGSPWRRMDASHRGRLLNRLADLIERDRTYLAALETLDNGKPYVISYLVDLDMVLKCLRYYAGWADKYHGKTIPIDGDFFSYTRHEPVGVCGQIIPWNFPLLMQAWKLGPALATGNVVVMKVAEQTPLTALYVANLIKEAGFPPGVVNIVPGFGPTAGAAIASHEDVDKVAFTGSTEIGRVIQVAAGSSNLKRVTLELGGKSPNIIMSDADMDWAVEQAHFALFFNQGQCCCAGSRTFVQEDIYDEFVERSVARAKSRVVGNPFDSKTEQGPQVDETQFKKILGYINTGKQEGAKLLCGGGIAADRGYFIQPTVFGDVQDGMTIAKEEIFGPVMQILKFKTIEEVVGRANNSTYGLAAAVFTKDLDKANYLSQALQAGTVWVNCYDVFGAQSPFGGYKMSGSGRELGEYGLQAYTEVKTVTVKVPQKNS", "test": "ALDH2 enzymatic activity assay (340 nm) on mitochondrial lysate of HMVEC", "type": "cell-based", "procedure": "as §3, §4, §2\nThe enzymatic activity of ALDH2 was measured by transformation of acetaldehyde to acetic acid (Chen et al., 2008). The HMVEC-L cells were cultured as mentioned above, followed by 300 μl of buffer (10 mM DTT, 100 mM Tris-HCl pH 8.0, 20% glycerol, 1% Triton X-100) and centrifuged at 55000 g for 30 minutes at 4° C. […] The specificity of enzyme reaction was expressed as nmol NADH/minute/mg protein."}, "[6]": {"conditions": "HMVECs, Example 1, hyperoxia, 24 and 48 hours"}},
  "data": [
    {"smiles": "O=C(NCc1ccc2c(c1)OCO2)c1c(Cl)cccc1Cl", "note": "[Alda-1, N-(1,3-Benzodioxol-5-ylmethyl)-2,6-dichlorobenzamid]", "values": [
      {"measurement": "decrease in Bax compared to hyperoxia without pretreatment", "setting": "Bax", "value": 25, "unit": "%"},
      {"measurement": "PTEN-induced kinase 1 (PINK1) level vs hyperoxic controls", "setting": "hyperoxia-induced damage", "value": "decrease"},
      {"measurement": "mitofusin 1 (MFN1) level in lung lysates vs hyperoxia only", "setting": "hyperoxia-induced damage", "value": "decreased levels"},
      {"measurement": "mitofusin 2 (MFN2) level in lung lysates vs hyperoxia only", "setting": "hyperoxia-induced damage", "value": "decreased levels"},
      {"measurement": "decrease in 4HNE accumulation compared to untreated HMVEC exposed to hyperoxia", "setting": "4HNE", "value": 26, "unit": "%"},
      {"measurement": "decrease in cytochrome C compared to hyperoxia without pretreatment", "setting": "cytochrome C; HMVEC pretreated with 20 μM, hyperoxia 48 hours, normalized to β-actin", "value": 64, "unit": "%"},
      {"measurement": "Cytochrome C release", "setting": "cytochrome C; [6]", "value": "decreased"},
      {"measurement": "LC3B (western blot)", "setting": "acute lung injury", "value": "reduced"},
      {"measurement": "NF-κB-p65 (western blot)", "setting": "acute lung injury", "value": "reduced"},
      {"measurement": "autophagy", "setting": "acute lung injury", "value": "decrease"},
      {"measurement": "cytochrome C release (western blot)", "setting": "acute lung injury", "value": "reduced"},
      {"measurement": "cytokine and neutrophil infiltration and inflammation, DMSO mice vs Alda-1 mice", "setting": "acute lung injury", "value": "more cytokine and neutrophil infiltration and elevated inflammation than mice treated with Alda-1"},
      {"measurement": "inflammation", "setting": "acute lung injury", "value": "decrease"},
      {"measurement": "oxidative stress", "setting": "acute lung injury", "value": "decrease"},
      {"measurement": "mitochondrial ROS production", "setting": "[1]", "value": "suppressed"},
      {"measurement": "Drp1 level in lung lysate vs DMSO", "setting": "[2]", "value": "decreased levels"},
      {"measurement": "OPA1 level in lung lysate vs DMSO", "setting": "[2]", "value": "decreased levels"},
      {"measurement": "infiltration of macrophages in BAL fluid vs DMSO", "setting": "[2]", "value": "less infiltration"},
      {"measurement": "increase in mitochondrial membrane potential (JC-1 red to green ratio) compared to hyperoxia without treatment", "setting": "[3]; HMVEC, 20 μM, hyperoxia 48 hours", "value": 1.62, "unit": "fold"},
      {"measurement": "mitochondrial membrane potential", "setting": "[3]; [6]", "value": "rescued"},
      {"measurement": "effect on ALDH2 expression in hyperoxia", "setting": "ALDH2 [4]", "value": "no effect"},
      {"measurement": "increase in ALDH2 activity compared to hyperoxia without pretreatment", "setting": "ALDH2 [5]; HMVEC mitochondrial extract, 20 μM, hyperoxia 48 hours", "value": 45, "unit": "%"},
      {"measurement": "ALDH2 activity", "setting": "ALDH2 [5]; HMVECs, Example 1, during both normoxia and hyperoxia", "value": "elevated"}
    ]}
  ]
}
